{
  "source": "paper PMC4104029",
  "about": "“Mechanism of Action of Compound-13: An α1-Selective Small Molecule Activator of AMPK” (Chemistry & Biology, 2014)",
  "system": "AMPK-KO (AMPKα1−/− -α2−/−) hepatocytes",
  "test": "Lipid synthesis, [1-14C]acetate incorporation",
  "assay_type": "cell-based, mouse",
  "protocol": "Figure 5 C13 Inhibits Lipid Synthesis and Fatty Acid Esterification in Mouse Hepatocytes in an AMPK-Dependent Manner (A) Mouse hepatocytes were treated with the indicated concentrations of C13 and labeled with [1-^14C]acetate for 3 hr. A769662 (100 μM) and AICAR (0.5 mM) were included as positive controls. Rates of fatty acid and sterol synthesis were estimated by incorporation into saponifiable and nonsaponifiable lipids. Results are expressed as the mean acetate incorporated in micromoles per gram-hour ± SD and are representative of two independent experiments. […] Incorporation into triglyceride was determined as described in Experimental Procedures and results are expressed as palmitate incorporated in micromoles per gram-hour ± SD and are representative of three independent experiments. […] Results are expressed as percentage WT vehicle and represent the mean ± SD for three independent experiments. […]\nLipid synthesis was determined by labeling adherent cultures of primary hepatocytes with [1-^14C]acetate. […] Lipogenesis in hepatocytes from AMPKβ1/β2-KO mice was determined in media containing [^3H]acetate (0.2 mCi⋅mmol^−1). After 4 hr labeling, total lipids were extracted using the method of [Bligh and Dyer (1959)], and incorporated [^3H] was determined by scintillation counting. The results are expressed as micromoles acetate incorporated per gram-hour.",
  "data": [
    {"smiles": "CC(C)C(=O)OCOP(=O)(OCOC(=O)C(C)C)c1ccc(C2=NOC(=O)C2)o1", "note": "[Compound C13]", "values": [
      {"measurement": "anti-lipogenic effect", "result": "resistant"},
      {"measurement": "impairment of lipogenesis", "setting": "highest concentrations of C13", "result": "≈ 20%"}
    ]}
  ]
}
